Where “and” joins values, the source holds several entries; their conditions need not be identical. Equal entries are not always repeated. Blank lines part the entries; values can stand above or below the compound they belong to. Where a SMILES comes first, the peptide text is derived from it. The star is where a group is joined. tBu = CC(C)(C)*
What was measured:
[1] = Stability (half life) in buffer solutions at pH 3, 5 and 7 at 50, 75 or 100 °C; assay type: physicochemical; details: for half-life: buffer; for Stability in buffered solutions: buffered solutions at pH 3, 5 and 7; for Stability compared with aspartame: buffered solutions studied, except pH 3 at 100 °C
Protocol: α-L-Aspartyl-2-methylalanine[β(+)Fenchyl]ester (Example 9), α-L-Aspartyl-D-alanine[β(+)Fenchyl]ester, (Example 10) and aspartame L-Aspartyl-L-phenylalanine methyl ester were studied for stability at pH3, 5 and 7 in buffer solutions maintained at 50° C., 75° C., or 100° C., the following results were obtained: […]

[2] = Sweetness determination by a panel of experts: aqueous solutions matched to sucrose standard solutions (sucrose equivalence); parameters: key to Sucrose equivalence: weight % sucrose solution of matched sweetness
Description: A taste procedure for determination of sweetness merely involves the determination of sucrose equivalency. Sucrose equivalence for sweeteners are readily determined. The amount of a sweetener that is equivalent to a given weight percent sucrose can be determined by having a panel of tasters taste solutions of a sweetener at known concentrations and match its sweetness to standard solutions of sucrose.
The following examples further illustrate the invention. In the following examples, the sensory evaluation were obtained by a panel of experts using known weight percent aqueous solutions of the exemplified compounds and were matched to sucrose standard solutions.

[3] = prior art statement; cited from earlier work
[4] = pH 3, buffer solution, 75 °C, pH 3
[5] = pH 3, buffer solution, 100 °C, pH 3
[6] = pH 5, buffer solution, 75 °C, pH 5
[7] = pH 5, buffer solution, 100 °C, pH 5
[8] = pH 7, buffer solution, 100 °C, pH 7
[9] = concentration 0.005 (weight percent aqueous solution)
[10] = concentration 0.01 (weight percent aqueous solution)
[11] = concentration 0.010 (weight percent aqueous solution)
[12] = concentration 0.025 (weight percent aqueous solution)
[13] = concentration 0.00012 (weight percent aqueous solution)
[14] = concentration 0.00024 (weight percent aqueous solution)
[15] = concentration 0.00047 (weight percent aqueous solution)
[16] = concentration 0.00092 (weight percent aqueous solution)
[17] = concentration 0.00185 (weight percent aqueous solution)
[18] = concentration 0.0025 (weight percent aqueous solution)
[19] = concentration 0.00375 (weight percent aqueous solution)
[20] = concentration 0.0075 (weight percent aqueous solution)
[21] = pH 3, buffer solution, 50 °C, pH 3
[22] = pH 5, buffer solution, 50 °C, pH 5
[23] = concentration 0.05 (weight percent aqueous solution)
[24] = concentration 0.00692 (so in the source), weight percent aqueous solution

half-life [1, 4]: 21.6 h
half-life [1, 5]: 5.3 h
half-life [1, 6]: 26.4 h
half-life [1, 7]: 5.3 h
half-life [1, 8]: < 1 h
Stability compared with Example 9 and Example 10 ([1]; pH 3, 100 °C, between Example 9 and Example 10): intermediate stability
Compound: COC(=O)[C@H](Cc1ccccc1)NC(=O)[C@@H](N)CC(=O)O [Aspartame, L-Aspartyl-L-phenylalanine methyl ester, reference compound] (H-Asp-Phe-OMe)

Compound: CC1CCC(C)C1OC(=O)C1(NC(=O)[C@@H](N)CC(=O)O)CC1 (stereo partly drawn) [L-Aspartyl-1-aminocyclopropyl-1-carboxylicacid, 2,5-dimethyl-1-cyclopentyl ester]
Sucrose equivalence [2, 9]: 1.0
Sweetness relative to sucrose [2, 9]: 200 × Sucrose
Sweetness relative to sucrose [2, 10]: 217 × Sucrose
Sucrose equivalence [2, 11]: 2.2
Sucrose equivalence [2, 12]: 3.3
Sweetness relative to sucrose [2, 12]: 133 × Sucrose

half-life [1, 21]: 528 h
half-life [1, 4]: 31.2 h
half-life [1, 5]: 3.9 h
half-life [1, 22]: 3140 h
half-life [1, 6]: 122 h
half-life [1, 7]: 14 h
half-life [1, 8]: 10 h
Stability in buffered solutions [1]: outstanding stability
Stability compared with aspartame [1]: better stability
Compound: C[C@@H](NC(=O)[C@@H](N)CC(=O)O)C(=O)OC1C2(C)CCC(C2)C1(C)C (single isomer, unassigned) [Example 10, α-L-Aspartyl-D-alanine[β(+)Fenchyl]ester]
Sucrose equivalence [2, 13]: 0.6%
Sweetness relative to sucrose [2, 13]: 5000 × Sucrose
Sucrose equivalence [2, 14]: 1.42%
Sweetness relative to sucrose [2, 14]: 5900 × Sucrose
Sucrose equivalence [2, 15]: 2.28%
Sweetness relative to sucrose [2, 15]: 4900 × Sucrose
Sucrose equivalence [2, 16]: 4.7%
Sweetness relative to sucrose [2, 16]: 5100 × Sucrose
Sucrose equivalence [2, 17]: 6.5%
Sweetness relative to sucrose [2, 17]: 3500 × Sucrose
Sucrose equivalence [2, 18]: 6.0%
Sweetness relative to sucrose [2, 18]: 2400 × Sucrose
Sucrose equivalence [2, 19]: 8.6%
Sweetness relative to sucrose [2, 19]: 2300 × Sucrose
Sucrose equivalence [2, 9]: 9.3% and 10.0%
Sweetness relative to sucrose [2, 9]: 1860 × Sucrose and 2000 × Sucrose
Sucrose equivalence [2, 20]: 9.0%
Sweetness relative to sucrose [2, 20]: 1200 × Sucrose
Sucrose equivalence [2, 10]: 11.0%
Sweetness relative to sucrose [2, 10]: 1100 × Sucrose

Compound: CC1CCC(C)C1OC(=O)[C@@H](C)NC(=O)[C@@H](N)CC(=O)O (stereo partly drawn) [Example 7, N-L-Aspartyl-D-alanine(2,5-dimethylcyclopentyl)ester]
Sucrose equivalence [2, 9]: 1.16
Sweetness relative to sucrose [2, 9]: 233 × Sucrose
Sweetness relative to sucrose [2, 10]: 230 × Sucrose
Sucrose equivalence [2, 11]: 2.3
Sucrose equivalence [2, 12]: 4.82
Sweetness relative to sucrose [2, 12]: 193 × Sucrose
Sucrose equivalence [2, 23]: 7.50
Sweetness relative to sucrose [2, 23]: 150 × Sucrose

Compound: COC(=O)[C@H](COC(C)(C)C)NC(=O)[C@@H](N)CC(=O)O [L-aspartyl-O-t-butyl-L-serine methyl ester] (H-Asp-Ser(tBu)-OMe)
Sweetness (in words) [3]: significant sweetness

Compound: CC(C)(NC(=O)[C@@H](N)CC(=O)O)C(=O)OC1C(C)(C)CCC1(C)C [Example 2, N-(L-Aspartyl)-2-methylalanine(2,2,5,5-tetramethyl-1-cyclopentyl)ester]
Sucrose equivalence [2, 9]: 2.00
Sucrose equivalence [2, 11]: 3.25
Sucrose equivalence [2, 12]: 5.75

Compound: CCC(C)(C)OC[C@H](NC(=O)[C@@H](N)CC(=O)O)C(=O)OC [L-aspartyl-O-t-amyl-L-serine methyl ester]
Sweetness (in words) [3]: significant sweetness

Compound: C[C@@H](NC(=O)[C@@H](N)CC(=O)O)C(=O)OC1C(C)(C)CCC1(C)C [Example 1, L-Aspartyl-D-alanine(2,2,5,5-tetramethyl-1-cyclopentyl)ester]
Sucrose equivalence [2, 9]: 2.5
Sucrose equivalence [2, 11]: 3.7
Sucrose equivalence [2, 12]: 7.7
Sucrose equivalence [2, 23]: 8.0

Compound: C[C@@H](NC(=O)[C@@H](N)CC(=O)O)C(=O)OC1(C)CCCC1 [Example 6, N-L-Aspartyl-D-alanine (1-methyl-1-cyclopentyl)ester]
Sucrose equivalence [2, 23]: 2.0
Sweetness relative to sucrose [2, 23]: 40 × Sucrose

half-life [1, 21]: 1540 h
half-life [1, 4]: 72 h
half-life [1, 5]: 8.4 h
half-life [1, 22]: 3600 h
half-life [1, 6]: 360 h
half-life [1, 7]: 33 h
half-life [1, 8]: 67 h
Stability compared with Example 10 ([1]; buffered solutions): more stable
Stability in buffered solutions [1]: outstanding stability
Stability compared with aspartame [1]: better stability
Compound: CC(C)(NC(=O)[C@@H](N)CC(=O)O)C(=O)OC1C2(C)CCC(C2)C1(C)C (single isomer, unassigned) [Example 9, α-L-Aspartyl-2-methylalanine[β(+)Fenchyl]ester]
Sucrose equivalence [2, 17]: 5.7%
Sweetness relative to sucrose [2, 17]: 3100 × Sucrose
Sucrose equivalence [2, 18]: 6.0% and 4.3% and 4.25%
Sweetness relative to sucrose [2, 18]: 2400 × Sucrose and 1733 × Sucrose and 1700 × Sucrose
Sucrose equivalence [2, 19]: 6.0%
Sweetness relative to sucrose [2, 19]: 1600 × Sucrose
Sucrose equivalence [2, 9]: 7.37% and 7.0% and 6.0%
Sweetness relative to sucrose [2, 9]: 1475 × Sucrose and 1400 × Sucrose and 1200 × Sucrose
Sucrose equivalence [2, 24]: 3.5%
Sweetness relative to sucrose [2, 24]: 3800 × Sucrose
Sucrose equivalence [2, 20]: 8.5%
Sweetness relative to sucrose [2, 20]: 1133 × Sucrose
Sucrose equivalence [2, 10]: 9.25% and 9.0%
Sweetness relative to sucrose [2, 10]: 925 × Sucrose and 900 × Sucrose

From patent publication US4822635A, “Sweetening with L-aminodicarboxylic acid esters” (General Foods Corporation, priority 1988, dated 1989)
